Assay results published in ChEMBL document CHEMBL4340511, “22-Oxocholestane oximes as potential anti-inflammatory drug candidates” (Eur J Med Chem, 2019).
Active and inactive are the calls of the source. The rule behind the calls is not given here.

Legend:
Format in all cases: functional, organism-based
Mus musculus [1] = assay: Antiinflammatory activity in CD1 mouse model of TPA-induced ear edema assessed as decrease in IFNgamma expression at 125 ug/ear, each surface administered topically for 15 mins prior to TPA challenge and measured after 6 hrs by qRT-PCR analysis
Mus musculus [2] = assay: Antiinflammatory activity against TPA-induced ear edema in CD1 mouse assessed as reduction in ear edema at 125 ug/ear, each surface administered topically for 15 mins prior to TPA challenge and measured after 6 hrs
Mus musculus [3] = assay: Antiinflammatory activity in CD1 mouse model of TPA-induced ear edema assessed as decrease in COX-2 expression at 125 ug/ear, each surface administered topically for 15 mins prior to TPA challenge and measured after 6 hrs by qRT-PCR analysis
Mus musculus [4] = assay: Antiinflammatory activity in CD1 mouse model of TPA-induced ear edema assessed as decrease in MIF expression at 125 ug/ear, each surface administered topically for 15 mins prior to TPA challenge and measured after 6 hrs by qRT-PCR analysis
Mus musculus [5] = assay: Antiinflammatory activity against TPA-induced ear edema in CD1 mouse assessed as reduction in weight of ear punches at 125 ug/ear, each surface administered topically for 15 mins prior to TPA challenge and measured after 6 hrs
Mus musculus [6] = assay: Antiinflammatory activity in CD1 mouse model of TPA-induced ear edema assessed as decrease in TNFalpha expression at 125 ug/ear, each surface administered topically for 15 mins prior to TPA challenge and measured after 6 hrs by qRT-PCR analysis
Mus musculus [7] = assay: Antiinflammatory activity in CD1 mouse assessed as reduction in TPA-induced ear flushing at 125 ug/ear, each surface administered topically for 15 mins prior to TPA challenge and measured after 6 hrs
Mus musculus [8] = assay: Antiinflammatory activity in CD1 mouse model of TPA-induced ear edema assessed as decrease in IL-6 expression at 125 ug/ear, each surface administered topically for 15 mins prior to TPA challenge and measured after 6 hrs by qRT-PCR analysis
Mus musculus [9] = assay: Antiinflammatory activity in CD1 mouse model of TPA-induced ear edema assessed as decrease in MIF expression at 250 ug/ear, each surface administered topically for 15 mins prior to TPA challenge and measured after 6 hrs by qRT-PCR analysis
Mus musculus [10] = assay: Antiinflammatory activity against TPA-induced ear edema in CD1 mouse assessed as reduction in ear edema at 225 ug/ear, each surface administered topically for 15 mins prior to TPA challenge and measured after 6 hrs
Mus musculus [11] = assay: Antiinflammatory activity in CD1 mouse model of TPA-induced ear edema assessed as decrease in TNFalpha expression at 250 ug/ear, each surface administered topically for 15 mins prior to TPA challenge and measured after 6 hrs by qRT-PCR analysis
Mus musculus [12] = assay: Antiinflammatory activity in CD1 mouse assessed as reduction in TPA-induced ear flushing at 250 ug/ear, each surface administered topically for 15 mins prior to TPA challenge and measured after 6 hrs
Mus musculus [13] = assay: Antiinflammatory activity in CD1 mouse model of TPA-induced ear edema assessed as decrease in COX-2 expression at 250 ug/ear, each surface administered topically for 15 mins prior to TPA challenge and measured after 6 hrs by qRT-PCR analysis
Mus musculus [14] = assay: Antiinflammatory activity against TPA-induced ear edema in CD1 mouse assessed as reduction in weight of ear punches at 225 ug/ear, each surface administered topically for 15 mins prior to TPA challenge and measured after 6 hrs
Mus musculus [15] = assay: Antiinflammatory activity in CD1 mouse model of TPA-induced ear edema assessed as decrease in IL-6 expression at 250 ug/ear, each surface administered topically for 15 mins prior to TPA challenge and measured after 6 hrs by qRT-PCR analysis
Mus musculus [16] = assay: Antiinflammatory activity in CD1 mouse model of TPA-induced ear edema assessed as decrease in IFNgamma expression at 250 ug/ear, each surface administered topically for 15 mins prior to TPA challenge and measured after 6 hrs by qRT-PCR analysis

Row | Compound | Activity (Mus musculus [1]) | Activity (Mus musculus [2]) | Activity (Mus musculus [3]) | Activity (Mus musculus [4]) | Activity (Mus musculus [5]) | Activity (Mus musculus [6]) | Activity (Mus musculus [7]) | Activity (Mus musculus [8]) | Activity (Mus musculus [9]) | Activity (Mus musculus [10]) | Activity (Mus musculus [11]) | Activity (Mus musculus [12]) | Activity (Mus musculus [13]) | Activity (Mus musculus [14]) | Activity (Mus musculus [15]) | Activity (Mus musculus [16])
1 | CC(=O)O[C@H]1C[C@H]2[C@@H]3CC=C4C[C@@H](O)CC[C@]4(C)[C@H]3CC[C@]2(C)[C@H]1[C@H](C)C(=O)CC[C@H](C)/C=N/O | inactive | Active | Active | Active | Active | Active | inactive | Active |  |  |  |  |  |  |  | 
2 | C[C@@H]1C[C@H]2[C@@H]3CCC4=CC(=O)C=C[C@]4(C)[C@@]3(F)[C@@H](O)C[C@]2(C)[C@@]1(O)C(=O)CO |  |  |  |  |  |  |  |  | Active | Active | Active | inactive | Active | Active | Active | inactive
3 | CC(=O)O[C@H]1C[C@H]2[C@@H]3CC=C4C[C@@H](O)CC[C@]4(C)[C@H]3CC[C@]2(C)[C@H]1[C@H](C)C(=O)CC[C@@H](C)/C=N/O |  |  |  |  | inactive |  |  |  |  |  |  |  |  |  |  | 
4 | CC(=O)O[C@H]1C[C@H]2[C@@H]3CC=C4C[C@@H](O)CC[C@]4(C)[C@H]3CC[C@]2(C)[C@H]1[C@H](C)C(=O)CC/C(C)=N/O | inactive | Active | Active | Active | Active | Active | inactive | Active |  |  |  |  |  |  |  | 
5 | CC(=O)O[C@H]1CC[C@@]2(C)C(=CC[C@H]3[C@@H]4C[C@H](OC(C)=O)[C@H]([C@H](C)C(=O)CC[C@H](C)/C=N/O)[C@@]4(C)CC[C@@H]32)C1 | inactive | Active | Active | Active | Active | Active | inactive | Active |  |  |  |  |  |  |  | 
6 | CC(=O)O[C@H]1CC[C@@]2(C)C(=CC[C@H]3[C@@H]4C[C@H](OC(C)=O)[C@H]([C@H](C)C(=O)CC[C@@H](C)/C=N/O)[C@@]4(C)CC[C@@H]32)C1 |  |  |  |  | inactive |  |  |  |  |  |  |  |  |  |  | 
